In patent US20020187123A1, “Therapeutic compositions and methods for the inhibition of angiogenesis” (priority 2001, published 2002):

Key:
[1] = system: isolated, cultured human endothelial cells; assay: Endostatin responsiveness of isolated, cultured human endothelial cells; format: cell-based
[2] = system: bFGF-stimulated corneal angiogenesis; assay: Corneal angiogenesis assay; format: in vivo, mice; settings: delivered by intraperitoneal osmotic pump
From the text: The effect of endostatin on bFGF-stimulated corneal angiogenesis was examined in wild type and E-selectin deficient mice.

[3] = system: VEGF-stimulated endothelial vessel formation by aortic endothelium; assay: Aortic ring explant assay of endothelial vessel morphogenesis; format: cell-based; settings: aortae of wild type mice
From the text: The results described above were extended using an aortic ring explant assay of endothelial vessel morphogenesis. […] The more rapid and extensive growth in E-selectin deficient aortae is therefore consistent with the hypothesis that E-selectin is required for endostatin activity.

tumor growth = settings: mouse model; cited from earlier work

For tumor necrosis factor-alpha, the “effect on endostatin responsiveness” value ([1]; isolated cultured human endothelial cells, even in the presence of E-selectin) was “appears to block and/or prevent endostatin responsiveness”.

For endostatin, the “effect on FGF-stimulated corneal angiogenesis” value ([2]; E-selectin deficient mice) was “not in the E-selectin deficient mice”, the “effect on FGF-stimulated corneal angiogenesis” value ([2]; wild type mice) was “inhibited FGF-stimulated angiogenesis” and the “effect on vessel formation” value [3] was “vessel formation was inhibited”. The “effect on tumor growth” value (tumor growth) was “dramatic reduction in tumor growth”.

B1: E-selectin (protein, UniProt P16581 22-610, looked up)
E-selectin: WSYNTSTEAMTYDEASAYCQQRYTHLVAIQNKEEIEYLNSILSYSPSYYWIGIRKVNNVWVWVGTQKPLTEEAKNWAPGEPNNRQKDEDCVEIYIKREKDVGMWNDERCSKKKLALCYTAACTNTSCSGHGECVETINNYTCKCDPGFSGLKCEQIVNCTALESPEHGSLVCSHPLGNFSYNSSCSISCDRGYLPSSMETMQCMSSGEWSAPIPACNVVECDAVTNPANGFVECFQNPGSFPWNTTCTFDCEEGFELMGAQSLQCTSSGNWDNEKPTCKAVTCRAVRQPQNGSVRCSHSPAGEFTFKSSCNFTCEEGFMLQGPAQVECTTQGQWTQQIPVCEAFQCTALSNPERGYMNCLPSASGSFRYGSSCEFSCEQGFVLKGSKRLQCGPTGEWDNEKPTCEAVRCDAVHQPPKGLVRCAHSPIGEFTYKSSCAFSCEEGFELHGSTQLECTSQGQWTEEVPSCQVVKCSSLAVPGKINMSCSGEPVFGTVCKFACPEGWTLNGSAARTCGATGHWSGLLPTCEAPTESNIPLVAGLSAAGLSLLTLAPFLLWLRKCLRKAKKFVPASSCQSLESDGSYQKPSYIL
notes: a cell surface glycoprotein expressed by the endothelium
For B1, the “effect on endostatin responsiveness” value ([1]; isolated, cultured human endothelial cells) was “can be sufficient to confer endostatin responsiveness”.
